Laboratory results taken from the PolyMetriX glass transition set.
± gives the standard deviation of the reports.

glass transition temperature | SMILES
39.00 °C | *c1ccc(OCCCCCCCCCCCOC(=O)c2cccc(C(=O)OCCCCCCCCCCCOc3cccc(-c4nnc(*)s4)c3)c2)cc1 (repeat unit)
104.30 °C | *CCC(c1ccccc1)C(*)c1ccccc1 (repeat unit)
147.00 °C | *Oc1ccc(CC(C#N)(C#N)Cc2ccc(*)cc2)cc1 (repeat unit)
-43.00 °C | *O[Si](C)(CCC(F)(F)F)O[Si](C)(CCC(F)(F)F)O[Si](C)(CCC(F)(F)F)CCC(F)(F)C(F)(F)C(F)(F)C(F)(F)C(F)(F)C(F)(F)CC[Si](*)(C)CCC(F)(F)F (repeat unit)
45.00 °C | *O[Si](C)(C)Oc1ccc(C(C)(C)c2ccc(*)cc2)cc1 (repeat unit)
339.00 °C | *C(=O)Nc1cccc(NC(=O)c2ccc3c(c2)C(=O)N(c2cccc(N4C(=O)c5ccc(*)cc5C4=O)c2)C3=O)n1 (repeat unit)
33.00 °C | *c1cc(SCCCCCCCCCCCC)c(*)s1 (repeat unit)
104.00 °C | *Oc1ccc(C(CC)c2ccc(OC(*)=S)cc2)cc1 (repeat unit)
221.00 °C | *c1ccc(-c2nc3cc(C)ccc3o2)c(*)c1 (repeat unit)
212.00 °C | *CC(c1ccccc1)C1C(=O)OC(=O)C1* (repeat unit)
122.00 °C | *Oc1ccc(C(C)(C)c2ccc(OC(=O)c3cccc(C(F)(F)C(F)(F)C(F)(F)c4cccc(C(*)=O)c4)c3)cc2)cc1 (repeat unit)
237.00 °C | *CC(c1ccccc1)C1C(=O)N(c2ccc(C(C)(C)C)cc2)C(=O)C1* (repeat unit)
15.00 °C | *Oc1ccc(CC(NC(=O)CCc2ccc(OC(=O)CCCCC(*)=O)cc2)C(=O)OCCOCCOCC)cc1 (repeat unit)
102.00 °C | *C(=O)OCCCCCCCCCCOC(=O)c1ccc(NC(=O)c2ccc(N3C(=O)c4ccc(*)cc4C3=O)cc2)cc1 (repeat unit)
116.00 °C | *CC(*)c1cc(C(F)(F)F)cc(C(F)(F)F)c1 (repeat unit)
234.50 °C | *Oc1ccc(S(=O)(=O)c2ccc(Oc3ccc(/C=C/c4ccc(*)cc4)cc3)cc2)cc1 (repeat unit)
44.00 °C | *CCCCCCCOC(=O)c1ccc(-c2ccc(C(=O)O*)cc2)cc1 (repeat unit)
235.00 °C | *c1ccc(C(=O)Nc2ccc(-c3nnc(*)o3)cc2)c(Oc2ccccc2)c1 (repeat unit)
329.00 °C | *C(=O)Nc1ccc(Cc2ccc(NC(=O)c3ccc4c(c3)C(=O)N(c3c(C)cc(-c5cc(C)c(N6C(=O)c7ccc(*)cc7C6=O)c(C)c5)cc3C)C4=O)c(C)c2)cc1C (repeat unit)
187.00 °C | *c1cc(C(=O)OCCCCCC)cc(N2C(=O)CC(C3Cc4ccccc4C4C(=O)N(*)C(=O)C43)C2=O)c1 (repeat unit)
87.00 °C | *Nc1ccc(*)cc1OCCCCCCCCCCCC (repeat unit)
171.00 °C | *Oc1ccc(C(C)(C)c2ccc(Oc3ccc(C(=O)c4ccc(C(=O)c5ccc(*)c(C(F)(F)F)c5)cc4)cc3C(F)(F)F)cc2)cc1 (repeat unit)
333.00 °C | *c1ccc(-c2nc3cc(-c4ccc5nc(*)c(-c6ccc7ccccc7c6)nc5c4)ccc3nc2-c2ccc3ccccc3c2)cc1 (repeat unit)
250.00 °C | *Oc1c(Cl)cc(C(=C(Cl)Cl)c2cc(Cl)c(OC(*)=O)c(Cl)c2)cc1Cl (repeat unit)
208.00 °C | *C(=O)Nc1ccc(NC(=O)Nc2ccc(NC(=O)c3ccc4c(c3)C(=O)N(c3ccc(NC(=O)Nc5ccc(N6C(=O)c7ccc(*)cc7C6=O)cc5)cc3)C4=O)cc2)cc1 (repeat unit)
265.00 °C | *c1c(C)cc(-c2cc(C)c(N3C(=O)c4cccc(Oc5ccc(C(C)(C)c6ccc(Oc7cccc8c7C(=O)N(*)C8=O)cc6)cc5)c4C3=O)c(C)c2)cc1C (repeat unit)

glass transition temperature | SMILES
128.00 °C | *NC1CC(C)(C)CC(C)(CNC(=O)c2cc(NC(=O)C(C(C)CC)N3C(=O)c4ccccc4C3=O)cc(C(*)=O)c2)C1 (repeat unit)
52.00 °C | *C(=O)OCCOCCOCCOCCOC(=O)c1ccc(N2C(=O)c3ccc(*)cc3C2=O)cc1 (repeat unit)
224.00 °C | *c1ccc(N(c2ccc(C#N)cc2)c2ccc(N3C(=O)c4ccc(Oc5ccc(C(C)(C)c6ccc(C(C)(C)c7ccc(Oc8ccc9c(c8)C(=O)N(*)C9=O)cc7)cc6)cc5)cc4C3=O)cc2)cc1 (repeat unit)
42.00 °C | *Oc1ccc(CC(NC(=O)CCc2ccc(OC(=O)CCCCCCCCC(*)=O)cc2)C(=O)OCc2ccccc2)cc1 (repeat unit)
58.00 °C | *c1ccc2c(c1)C(CCCCCC)(CCCCCC)c1cc(-c3cc(OCCCCCCCC)c(*)cc3OCCCCCCCC)ccc1-2 (repeat unit)
155.00 °C | *C1=C(c2ccc(-c3ccc4c(c3)C(CCCCCC)(CCCCCC)c3cc(-c5ccc(*)cc5)ccc3-4)cc2)C(=O)N(CCCC)C1=O (repeat unit)
66.00 °C | *CC(*)c1ccccc1C(=O)OCCCC (repeat unit)
128.00 °C | *C(=O)c1ccc2c(c1)C(=O)N(c1ccc(-c3ccc(N4C(=O)c5ccc(*)cc5C4=O)c(OCCCCCCOc4ccc(/C=C/c5ccc(F)cc5)cc4)c3)cc1OCCCCCCOc1ccc(/C=C/c3ccc(F)cc3)cc1)C2=O (repeat unit)
77.60 °C | *CCCCCCCCCCOc1ccc(/N=C/c2ccc(/C=N/c3ccc(O*)cc3C)cc2)c(C)c1 (repeat unit)
46.50 °C | *CC(*)(CC(=O)OCCC)C(=O)OCCC (repeat unit)
355.00 °C | *C(=O)c1ccc2c(c1)C(=O)N(c1ccc(-c3nc(-c4ccccc4)nc(-c4ccc(N5C(=O)c6ccc(*)cc6C5=O)cc4)n3)cc1)C2=O (repeat unit)
190.50 °C | *c1cccc(Oc2cccc(Oc3cccc(N4C(=O)c5ccc(Oc6ccc(Sc7ccc(Oc8ccc9c(c8)C(=O)N(*)C9=O)cc7)cc6)cc5C4=O)c3)c2)c1 (repeat unit)
188.00 °C | *Cc1cc(CNC(=O)c2cccc(C(=O)N*)c2)cc(C(C)(C)C)c1 (repeat unit)
74.00 °C | *Oc1ccc(C(=O)OCCOC(=O)c2ccc(*)cc2)cc1 (repeat unit)
339.00 °C | *c1ccc2c(c1)C(=O)N(c1ccc(-c3cc(-c4ccc(OCCCC#N)cc4)cc(-c4ccc(N5C(=O)c6ccc(C(*)(C(F)(F)F)C(F)(F)F)cc6C5=O)cc4)n3)cc1)C2=O (repeat unit)
152.00 °C | *CC(*)(C)C(=O)Oc1ccc(C(=O)/C=C/c2ccc(OCc3ccccc3)cc2)cc1 (repeat unit)
6.00 °C | *CC(*)(F)C(=O)OCCC(F)(F)C(F)(F)C(F)(F)C(F)(F)F (repeat unit)
236.00 °C | *c1ccc(Oc2ccc(Oc3ccc(N4C(=O)c5ccc(Oc6ccc(C7(c8ccc(Oc9ccc%10c(c9)C(=O)N(*)C%10=O)cc8)CCC(c8ccccc8)CC7)cc6)cc5C4=O)cc3)c(C(C)(C)C)c2)cc1 (repeat unit)
129.00 °C | *CCOCCOCCOc1ccc(NC(=O)c2cccc(C(=O)Nc3ccc(O*)cc3)c2)cc1 (repeat unit)
230.00 °C | *c1ccc(Oc2ccc(C(C)(C)c3ccc(Oc4ccc(-c5nnc(*)n5-c5ccc(S(C)(=O)=O)cc5)cc4)cc3)cc2)cc1 (repeat unit)
368.00 °C | *C(=O)Nc1ccc(NC(=O)c2ccc3c(c2)C(=O)N(c2ccc(S(=O)(=O)c4ccc(N5C(=O)c6ccc(*)cc6C5=O)cc4)cc2)C3=O)cc1 (repeat unit)
256.00 ± 71 °C | *C(=O)c1ccc2c(c1)C(=O)N(c1ccc(Oc3ccc(C(C)(C)c4ccc(Oc5ccc(N6C(=O)c7ccc(*)cc7C6=O)cc5)cc4)cc3)cc1)C2=O (repeat unit)
57.86 °C | *Oc1ccc(/C=C2\CCC/C(=C\c3ccc(OC(=O)c4cccc(C(*)=O)c4)c(OC)c3)C2=O)cc1OC (repeat unit)
160.00 °C | *CCCCCCCCCCCCCCc1ccc(-c2c(-c3ccccc3)cc(-c3cccc(-c4cc(-c5ccccc5)c(-c5ccc(*)cc5)c(-c5ccccc5)c4-c4ccccc4)c3)c(-c3ccccc3)c2-c2ccccc2)cc1 (repeat unit)
360.00 °C | *c1ccc(-c2ccc(-c3ccc(-c4cc(-c5ccccc5)c5cc(-c6ccc7nc(*)cc(-c8ccccc8)c7c6)ccc5n4)cc3)cc2)cc1 (repeat unit)
241.00 °C | *CC(=O)Nc1ccc(Cc2ccc(NC(=O)COc3ccc4ccccc4c3Sc3c(O*)ccc4ccccc34)cc2)cc1 (repeat unit)

SMILES | glass transition temperature
*ON(C(F)(F)F)C(F)(Br)C(*)(F)F (repeat unit) | 3.00 °C
*CC(*)(C)C#N (repeat unit) [Poly(methacrylonitrile)] | 101.67 ± 19 °C
*CC(*)OC(=O)c1cccc([N+](=O)[O-])c1 (repeat unit) | 93.00 °C
*CC(*)c1c(F)c(F)c(P(=O)(O)O)c(F)c1F (repeat unit) | 330.00 °C
*OC(=O)CCCCCCCCC(*)=O (repeat unit) | 60.00 °C
*OC1C(C)(C)C(OC(*)=O)C1(C)C (repeat unit) | 160.00 °C
*CC(*)c1cc(C)cc(C)c1 (repeat unit) | 112.00 °C
*CCC(*)(C)C (repeat unit) | -12.00 °C
*CC(*)CC(C)(C)C (repeat unit) | 190.00 °C
*CC(*)(C)C(=O)NC(C)c1ccccc1 (repeat unit) | 156.50 °C
*CC(*)c1ccccc1C(=O)N(C)C (repeat unit) | 190.00 °C
*CC(C)S* (repeat unit) [Poly(propylene sulfide) ] | -47 ± 2.7 °C
*O[Si](C)(C)Oc1ccc(*)cc1 (repeat unit) | 90.00 °C
*CC(*)C(=O)OC(C)CC (repeat unit) [Poly(sec-butyl acrylate)] | -20 ± 1.8 °C
